Assay type in all cases: cell-based
Experiment [1] concerns PLC/PRF/5. Kind of experiment: CellTiter-Glo IG50, Example 8, PLC/PRF/5. Conditions: Homo sapiens, PLC/PRF/5, 72 hours. The method, then:
(§1) Various pancreatic, liver, colon, breast, and stomach cancer cell lines were exposed to the NF-κB inhibitors of the present invention, including, for example, IT-839, IT-843, IT-848, and IT-878, and assessed for IG50 in the CellTiter Glo 2.0 assay.
(§2) The cells were cultured in an atmosphere of 37° C., 5% CO2 and 95% humidity. All culture media and FBS were purchased from GIBCO, Hyclone or Sigma, USA. The media used for cell culture is described in the table below.
(§3) The cells were harvested during the logarithmic growth period and counted. Cell concentrations were adjusted to the appropriate number in appropriate medium and 90 μl cell suspensions were added to 96-well plates. When cells were added, the plates were shaken gently to distribute the cells evenly. Cells were incubated at 37° C. and 5% CO2.
(§4) 3× serial dilutions of test compound stock solutions with respective solvents were prepared. The stock solutions were diluted with culture medium to generate 10× working solutions of the test compounds. 10 μl of the 10× test compound solutions were added to each well in triplicate for each concentration. Plates were incubated for 72 hours in a humidified incubator at 37° C. and 5% CO2.
(§5) CellTiter-Glo (CTG) solution was thawed and equilibrated to room temperature. 50 μl of CTG were added to each well and the contents were mixed for 2 minutes on a plate shaker. Cells were incubated for 10 minutes before luminescence signal was recorded using Envision.
(§6) Cell viability was plotted with GraphPad Prism version 5 and the IG50 was calculated for each cell line. The graphical curves were fitted using a nonlinear regression model with a sigmoidal dose response. IG50 is the concentration of test drug where 100×T/C=50 (the optical density of the test well after a 3-day period of exposure to test drug is T; the control optical density is C).

Experiment [2] deals with HepG2. Kind of experiment: CellTiter-Glo IG50, Example 8, HepG2. Particulars: Homo sapiens, HepG2, 72 hours. The method, then: as §1, §2, §3, §4, §5, §6
In experiment [3] the test system is Hep3B. Kind of experiment: CellTiter-Glo IG50, Example 8, Hep3B. Conditions: Homo sapiens, 72 hours. How it is done:
as §1, §2, §3, §4, §5, §6

The subject of experiment [4] is HepG2. Kind of experiment: CellTiter-Glo IG50, Example 9 HCC panel, HepG2. Conditions: Homo sapiens, HepG2, 72 hours. How it is done:
as §3, §4, §5, §6, §2
(§7) Following the cell culture protocol and data analysis methods described in Example 8, the following IG50 results (in μM) were observed: […]

In experiment [5] the test system is Hep3B. In words: CellTiter-Glo IG50, Example 9 HCC panel, Hep3B. Conditions: Homo sapiens, 72 hours. How it is done: as §3, §4, §5, §6, §2, §7
Experiment [6] deals with PLC/PRF/5. In words: CellTiter-Glo IG50, Example 9 HCC panel, PLC/PRF/5. Particulars: Homo sapiens, PLC/PRF/5, 72 hours. The method, then:
as §3, §4, §5, §6, §2, §7

Experiment [7] relates to HUH7. In words: CellTiter-Glo IG50, Example 9 HCC panel, HUH7. Conditions: Homo sapiens, Huh-7, HUH7, 72 hours. The method, then: as §3, §4, §5, §6, §2, §7
Experiment [8] relates to JHH5. Kind of experiment: CellTiter-Glo IG50, Example 9 HCC panel, JHH5. Particulars: JHH5, 72 hours. How it is done:
as §3, §4, §5, §6, §2, §7

The subject of experiment [9] is PBMC. In words: CellTiter-Glo IG50, Example 9 HCC panel, PBMC. Conditions: 72 hours. How it is done:
as §3, §4, §5, §6, §2, §7

The subject of experiment [10] is SNU878. In words: CellTiter-Glo IG50, Example 9 HCC panel, SNU878. Particulars: SNU878, 72 hours. How it is done: as §3, §4, §5, §6, §2, §7
Experiment [11] concerns HepG2. In words: CellTiter-Glo IG50, Example 10 HCC panel, HepG2. Particulars: Homo sapiens, HepG2, 72 hours. How it is done: as §3, §4, §5, §6, §2
(§8) Following the cell culture protocol and data analysis method described in Example 8, the following IG50 results (in μM) were observed: […]

For experiment [12], the system named is Hep3B. Kind of experiment: CellTiter-Glo IG50, Example 10 HCC panel, Hep3B. Conditions: Homo sapiens, 72 hours. How it is done:
as §3, §4, §5, §6, §2, §8

Experiment [13] deals with PLC/PRF/5. Kind of experiment: CellTiter-Glo IG50, Example 10 HCC panel, PLC/PRF/5. Conditions: Homo sapiens, PLC/PRF/5, 72 hours. The method, then: as §3, §4, §5, §6, §2, §8
For experiment [14], the system named is HUH7. Kind of experiment: CellTiter-Glo IG50, Example 10 HCC panel, HUH7. Particulars: Homo sapiens, Huh-7, HUH7, 72 hours. How it is done: as §3, §4, §5, §6, §2, §8
In experiment [15] the test system is JHH5. Kind of experiment: CellTiter-Glo IG50, Example 10 HCC panel, JHH5. Conditions: JHH5, 72 hours. The method, then: as §3, §4, §5, §6, §2, §8
Experiment [16] concerns PBMC. In words: CellTiter-Glo IG50, Example 10 HCC panel, PBMC. Particulars: 72 hours. How it is done:
as §3, §4, §5, §6, §2, §8

For experiment [17], the system named is SNU878. Kind of experiment: CellTiter-Glo IG50, Example 10 HCC panel, SNU878. Particulars: SNU878, 72 hours. The method, then: as §3, §4, §5, §6, §2, §8

Here are results for two compounds from patent US11083729B2, “Methods of treating cancer with small molecule NF-κB inhibitors” (ImmuneTarget, Inc., priority 2017, dated 2021).

In the case of `CNC(=O)c1cc(Oc2ccc(NC(=O)Nc3ccc(Cl)c(C(F)(F)F)c3)cc2)ccn1` [Sorafenib, sorafenib, reference compound], the IC50 with PLC/PRF/5 [1] was 10.8 µM; in the experiment with HepG2 [2], 5.14 µM; in the experiment with Hep3B [3], 7.49 µM; with HepG2 [4], 3.15 µM; in the experiment with Hep3B [5], 7.57 µM; with PLC/PRF/5 [6] it was 10.8 µM. Further, the IC50 is 6.57 µM in the experiment on HUH7 [7]; 3.21 µM in the experiment with JHH5 [8]; 19.5 µM with PBMC [9]; 12.7 µM in the experiment on SNU878 [10]; 4.37 µM in the experiment on HepG2 [11]; 6.42 µM with Hep3B [12]. For the same compound, the half-inhibitory concentration (IC50) stood at 10.1 µM in the experiment with PLC/PRF/5 [13]; 5.14 µM with HUH7 [14]; 7.13 µM in the experiment with JHH5 [15]; 14.4 µM with PBMC [16]; 10.6 µM with SNU878 [17].
For `CC(C)(C)CCOc1ccc2cc3c(=O)[nH]c(=O)nc-3oc2c1Cl` [IT-845], the IC50 in the experiment with HepG2 [4] was determined as 4.14 µM; in the experiment on Hep3B [5], 1.81 µM; in the experiment on PLC/PRF/5 [6], 7.66 µM; with HUH7 [7], 2.72 µM; in the experiment with JHH5 [8], 8.11 µM; in the experiment on PBMC [9] it was 0.274 µM. The IC50 amounted to 10.7 µM in the experiment on SNU878 [10]; 6.95 µM in the experiment on HepG2 [11]; 4.03 µM in the experiment on Hep3B [12]; 9.22 µM in the experiment on PLC/PRF/5 [13]; 6.02 µM with HUH7 [14]; 10.1 µM in the experiment on JHH5 [15]. For the same compound, the IC50 was 2.4 µM in the experiment on PBMC [16] and 9.8 µM in the experiment on SNU878 [17].
